Source: patent US4347319A, “Microbiological epoxidation process” (priority 1980, dated 1982)
Read-outs that look alike come from different tables or passages of the source. Values belong to the molecule of their own block, whether it stands above or below them.

Tests used:
[1] = system: Hansenula polymorpha ATCC 26012; assay: Oxidation of sec-alcohols to ketones by cell suspensions of yeasts; type: cell-based; conditions: sec-alcohol to methyl ketone
[2] = system: cell extract of Torulopsis sp. strain A1 NRRL-Y-11,419; assay: Oxidation of secondary alcohols to methylketone by cell extracts of yeasts; type: biochemical; conditions: methanol-grown; cell extract + NAD^+; sec. alcohol to methyl ketone; gas chromatography
[3] = system: Torulopsis sp. Strain A1 (NRRLY-11,419); assay: Oxidation of sec-alcohols to ketones by cell suspensions of yeasts; type: cell-based; conditions: sec-alcohol to methyl ketone
[4] = system: cell extract of Hansenula polymorpha ATCC 26,012; assay: Oxidation of secondary alcohols to methylketone by cell extracts of yeasts; type: biochemical; conditions: methanol-grown; cell extract + NAD^+; sec. alcohol to methyl ketone; gas chromatography
[5] = system: cell extract of Kloeckera sp. strain A2 NRRL-Y-11,420; assay: as above; type: biochemical; conditions: methanol-grown; cell extract + NAD^+; sec. alcohol to methyl ketone; gas chromatography
[6] = system: cell extract of Pichia sp. NRRL-Y-11,328; assay: as above; type: biochemical; conditions: methanol-grown; cell extract + NAD^+; sec. alcohol to methyl ketone; gas chromatography
[7] = system: Candida utilis ATCC 26387; assay: Oxidation of sec-alcohols to ketones by cell suspensions of yeasts; type: cell-based; conditions: sec-alcohol to methyl ketone
[8] = system: Kloeckera sp. Strain A2 (NRRLY-11,420); assay: as above; type: cell-based; conditions: sec-alcohol to methyl ketone
[9] = system: Methylobacter vinelandii CRL M5Y NRRL B-11,218; assay: Sec. alcohol oxidation by cell suspensions of methanol-grown cells; type: cell-based; conditions: sec. alcohol to methyl ketone
Description: (§1) In this example, the procedure of Example 1 was repeated except that a plurality of the methane-utilizing methylotrophic microorganisms of the invention were each aerobically grown in a methanol-containing nutrient medium instead of a methane-containing medium. The nutrients in the medium were the same as indicated in Example 1 except that 0.4% v/v methanol was used as the alcohol dehydrogenase enzyme inducer and major source of carbon and energy for growth. Following growth the cells were harvested and washed as described in Example 1. The resting cells of the induced methanol-grown methylotrophic microorganisms were then contacted with a […] under aerobic conditions in a buffered solution by the procedure described in Example 1.

[10] = system: Methylococcus capsulatus CRL M1 NRRL B-11,219; assay: as above; type: cell-based; conditions: sec. alcohol to methyl ketone
Description: as §1

[11] = system: Methylobacterium organophilum CRL 26 NRRL B-11,222; assay: as above; type: cell-based; conditions: sec. alcohol to methyl ketone
Description: as §1

[12] = system: Methylocystis parvus CRL 18 NRRL B-11,204; assay: as above; type: cell-based; conditions: sec. alcohol to methyl ketone
Description: as §1

[13] = system: Methylomonas methanica CRL M4P NRRL B-11,205; assay: as above; type: cell-based; conditions: sec. alcohol to methyl ketone
Description: as §1

[14] = system: Methylobacter chroococcum CRL M6 NRRL B-11,214; assay: as above; type: cell-based; conditions: sec. alcohol to methyl ketone
Description: as §1

[15] = system: Methylosinus trichosporium CRL 15 NRRL B-11,202; assay: as above; type: cell-based; conditions: sec. alcohol to methyl ketone
Description: as §1

[16] = system: purified secondary alcohol dehydrogenase from Pichia sp. NRRL Y-11,328; assay: Substrate specificity, electron acceptor and stoichiometry of purified yeast SADH; type: biochemical; conditions: examined spectrophotometrically
[17] = system: cell extract of Candida utilis ATCC 26,387; assay: Oxidation of secondary alcohols to methylketone by cell extracts of yeasts; type: biochemical; conditions: methanol-grown; cell extract + NAD^+; sec. alcohol to methyl ketone; gas chromatography
Pichia sp. NRRL-Y-11328 = assay: Oxidation of sec-alcohols to ketones by cell suspensions of yeasts; type: cell-based; conditions: sec-alcohol to methyl ketone
[18] = system: Methylomonas rosaceus (CRL M10P) NRRL B-11,212; type: cell-based
Protocol: (§2) The pH of the nutrient medium was adjusted to 7.0 by the addition of acid or base and 50 ml samples of the nutrient medium were charged into a plurality of 300 ml shaker flasks. The shaker flasks were inoculated with an inoculating loop of cells from an agar plate containing homogeneous colonies of the microorganisms on the plate (the purity of the isolates was confirmed by microscopic examination. The isolates had been maintained on agar plates under an atmosphere of methane and air having a 1:1 v/v gas ratio which had been transferred evey two weeks. The gaseous phase of the inoculated flasks was then replaced with a gas mixture comprised of methane and air having a ratio of 1:1 on a v/v basis. The inoculated flasks were sealed air tight and were incubated on a rotary shaker of orbital radius 2.5 cm at 250 rpm and at 30° C. for two days until turbidity in the medium had developed.
(§3) The cells were harvested by centrifugation at 10,000×g. at 4° C. for 30 minutes. The cell pellet was washed twice with a 0.15 M phosphate buffer at a pH of 7.0 (containing 0.002 M MgCl2). The washed cells were then suspended in a 0.15 M phosphate buffer at pH 7.0.
(§4) A 0.5 ml sample of each washed cell suspension (2 mg cells) was put into 10 ml vials at 4° C. which were sealed with a rubber cap. The gaseous phase of the vials was removed with vacuum and then was replaced with a gas mixture of the oxidative substrate (e.g., methane) and oxygen at a 1:1 v/v ratio. The vials were then incubated at 30 ° C. on a rotary shaker at 300 rpm. Samples of product (3 μl) were withdrawn periodically with a microsyringe and the products were analyzed by gas chromatography (ionization flame detector column).
(§5) The newly discovered and isolated microorganism strains of the present invention were each grown aerobically in the presence of methane in the manner described above. The methane-grown microbial cells were then washed, recovered and put to use in oxidizing an oxidative substrate by the procedure described above except in the case of a liquid substrate 10 μl of the substrate were used.

[19] = system: Methylobacter bovis (CRL M1Y) NRRL B-11,216; assay: Oxidation by washed cell suspensions of methane-grown cells; type: cell-based
Protocol: as §2, with “The inoculated flasks were sealed air tight and were incubated on a rotary shaker of orbital radius 2.5 cm at 250 rpm and at 30° C. for two days until turbidity in the medium had developed.” left out
as §3, §4, §5

[20] = system: Methylobacter bovis (CRL 19 PM5) NRRL B-11,217; assay: as above; type: cell-based
Protocol: as §2, §3, §4, §5

[21] = system: Methylococcus capsulatus (CRL 25 PM13) NRRL B-11,221; assay: as above; type: cell-based
Protocol: as §2, §3, §4, §5

[22] = system: Methylobacter chroococcum (CRL M6) NRRL B-11,214; assay: as above; type: cell-based
Protocol: as §2, §3, §4, §5

[23] = system: Methylobacter chroococcum (CRL 23 PM8) NRRL B-11,215; assay: as above; type: cell-based
Protocol: as §2, §3, §4, §5

[24] = system: Methylosinus trichosporium (CRL 15 PM1) NRRL B-11,202; assay: as above; type: cell-based
Protocol: as §2, §3, §4, §5

[25] = system: Methylobacterium organophilum (CRL 26 R6) NRRL B-11,222; assay: as above; type: cell-based
Protocol: as §2, §3, §4, §5

[26] = system: Methylococcus minimus (CRL 24 PM12) NRRL B-11,220; assay: as above; type: cell-based
Protocol: as §2, §3, §4, §5

[27] = system: Methylomonas methanica (CRL M4P) NRRL B-11,205; assay: as above; type: cell-based
Protocol: as §2, §3, §4, §5

[28] = system: Methylomonas albus (CRL M8Y) NRRL B-11,207; assay: as above; type: cell-based
Protocol: as §2, §3, §4, §5

[29] = system: Methylosinus sporium (CRL 16 PM2) NRRL B-11,203; assay: as above; type: cell-based
Protocol: as §2, §3, §4, §5

[30] = system: Methylomonas streptobacterium (CRL 17 PM3) NRRL B-11,208; assay: as above; type: cell-based
Protocol: as §2, §3, §4, §5

[31] = system: Methylomonas agile (CRL 22 PM9) NRRL B-11,209; assay: as above; type: cell-based
Protocol: as §2, §3, §4, §5

[32] = system: Methylobacter vinelandii (CRL M5Y) NRRL B-11,218; assay: as above; type: cell-based; conditions: for Conversion Rate: methane-grown cells, n-pentane to 2-pentanone, n-hexane to 2-hexanone
Protocol: as §2, §3, §4, §5

[33] = system: Methylococcus capsulatus (CRL M1) NRRL B-11,219; assay: as above; type: cell-based
Protocol: as §2, §3, §4, §5

[34] = system: Methylosinus trichosporium OB3b (NRRL B-11,196); assay: Oxidation by cell suspensions of methane-grown cells; type: cell-based; conditions: growth substrate Methane; n-alkane to secondary alcohol
Protocol: as §2, §3, §4
(§6) The conditions for preparing the cell suspensions or the cell-free particulate fractions from methane-grown methylotroph microorganisms is the same as described above.

[35] = system: Methylococcus capsulatus (Texas, ATCC 19,069); assay: as above; type: cell-based; conditions: growth substrate Methane; n-alkane to secondary alcohol
Protocol: as §2, §3, §4, §6

[36] = system: Methylomonas methanica (CRL 21 PM7) NRRL B-11,206; assay: Oxidation by washed cell suspensions of methane-grown cells; type: cell-based; conditions: methane-grown cells; n-pentane to 2-pentanone, n-hexane to 2-hexanone
Protocol: as §2, §3, §4, §5

[37] = methane-grown cells, n-pentane to 2-pentanone, n-hexane to 2-hexanone

oxidation by the purified enzyme [16]: catalyzed the oxidation
SMILES: CCCCC(C)O (centres unmarked) [2-Hexanol]
Conversion Rate ([1]; growth substrate Ethanol): 0.54 μmoles/hr/mg of protein
Conversion Rate ([1]; growth substrate Methanol): 0.72 μmoles/hr/mg of protein
Conversion Rate ([1]; growth substrate Methylamine): 0.62 μmoles/hr/mg of protein
Conversion Rate ([1]; growth substrate Methylformate): 0.70 μmoles/hr/mg of protein
Conversion Rate ([1]; growth substrate Propylamine): 0.48 μmoles/hr/mg of protein
Conversion Rate [2]: 0.21 μmoles/hr/mg Protein
Conversion Rate ([3]; growth substrate Ethanol): 0.20 μmoles/hr/mg of protein
Conversion Rate ([3]; growth substrate Methanol): 0.21 μmoles/hr/mg of protein
Conversion Rate ([3]; growth substrate Methylamine): 0.12 μmoles/hr/mg of protein
Conversion Rate ([3]; growth substrate Methylformate): 0.25 μmoles/hr/mg of protein
Conversion Rate ([3]; growth substrate Propylamine): 0.10 μmoles/hr/mg of protein
Conversion Rate [4]: 0.51 μmoles/hr/mg Protein
Conversion Rate [5]: 0.25 μmoles/hr/mg Protein
Conversion Rate [6]: 0.60 μmoles/hr/mg Protein
Conversion Rate ([7]; growth substrate Ethanol): 0.72 μmoles/hr/mg of protein
Conversion Rate ([7]; growth substrate Methanol): 0.8 μmoles/hr/mg of protein
Conversion Rate ([7]; growth substrate Methylamine): 0.61 μmoles/hr/mg of protein
Conversion Rate ([7]; growth substrate Methylformate): 0.75 μmoles/hr/mg of protein
Conversion Rate ([7]; growth substrate Propylamine): 0.52 μmoles/hr/mg of protein
Conversion Rate ([8]; growth substrate Ethanol): 0.12 μmoles/hr/mg of protein
Conversion Rate ([8]; growth substrate Methanol): 0.25 μmoles/hr/mg of protein
Conversion Rate ([8]; growth substrate Methylamine): 0.10 μmoles/hr/mg of protein
Conversion Rate ([8]; growth substrate Methylformate): 0.28 μmoles/hr/mg of protein
Conversion Rate ([8]; growth substrate Propylamine): 0.11 μmoles/hr/mg of protein
Conversion Rates [9]: 0.02 μmoles/hr/mg protein
Conversion Rates [10]: 0.08 μmoles/hr/mg protein
Conversion Rates [11]: 0.09 μmoles/hr/mg protein
Conversion Rates [12]: 0.05 μmoles/hr/mg protein
Conversion Rates [13]: 0.03 μmoles/hr/mg protein
Conversion Rates [14]: 0.02 μmoles/hr/mg protein
Conversion Rates [15]: 0.06 μmoles/hr/mg protein
Conversion Rate [17]: 0.45 μmoles/hr/mg Protein
Conversion Rate (Pichia sp. NRRL-Y-11328; growth substrate Ethanol): 0.28 μmoles/hr/mg of protein
Conversion Rate (Pichia sp. NRRL-Y-11328; growth substrate Methanol): 0.50 μmoles/hr/mg of protein
Conversion Rate (Pichia sp. NRRL-Y-11328; growth substrate Methylamine): 0.31 μmoles/hr/mg of protein
Conversion Rate (Pichia sp. NRRL-Y-11328; growth substrate Methylformate): 0.48 μmoles/hr/mg of protein
Conversion Rate (Pichia sp. NRRL-Y-11328; growth substrate Propylamine): 0.21 μmoles/hr/mg of protein

SMILES: C=CCC [Butene-1]
Oxidative Conversion Rates [18]: 3.1
Oxidative Conversion Rates [19]: 1.1
Oxidative Conversion Rates [20]: 1.3
Oxidative Conversion Rates [21]: 1.9
Oxidative Conversion Rates [22]: 0.7
Oxidative Conversion Rates [23]: 0.82
Oxidative Conversion Rates [24]: 1.8
Oxidative Conversion Rates [25]: 0.9
Oxidative Conversion Rates [26]: 1.5
Oxidative Conversion Rates [27]: 2.8
Oxidative Conversion Rates [28]: 1.8
Oxidative Conversion Rates [29]: 1.2
Oxidative Conversion Rates [30]: 2.5
Oxidative Conversion Rates [31]: 0.5
Oxidative Conversion Rates ([32]; methane-grown washed cells, 30° C., methane to methanol, alkene to 1,2-epoxide): 0 μmole/hr/mg protein
Oxidative Conversion Rates [33]: 1.3

SMILES: CCCCCC [n-Hexane]
Conversion Rate [34]: 0.01 μmoles/hr/^5 mg. protein
Conversion Rate [35]: 0.01 μmoles/hr/^5 mg. protein
Conversion Rate [24]: 0.04
Conversion Rate [36]: 0.01 μmole/hr/mg protein
Conversion Rate [32]: 0.01 μmole/hr/mg protein
Conversion Rate [33]: 0.08

SMILES: CCCCC [n-Pentane]
Conversion Rate [34]: 0.06 μmoles/hr/^5 mg. protein
Conversion Rate [35]: 0.032 μmoles/hr/^5 mg. protein
Conversion Rate [24, 37]: 0.08 μmole/hr/mg protein
Conversion Rate ([25]; growth substrate Methane, n-alkane to secondary alcohol): 0.01 μmoles/hr/^5 mg. protein
Conversion Rate [25, 37]: 0.18 μmole/hr/mg protein
Conversion Rate [36]: 0.06 μmole/hr/mg protein
Conversion Rate [32]: 0.04 μmole/hr/mg protein
Conversion Rate [33, 37]: 0.15 μmole/hr/mg protein
